This note sets out measurements from US9610268B2, “Trans-aconitic acid compounds and uses thereof for inhibiting phosphodiesterase 7” (Academia Sinica, priority 2013, dated 2017).

Test [1] has as its system PDE1. Briefly: PDE1 activity and inhibition assay (bis-p-nitrophenyl phosphate, OD 405 nm). The format is biochemical. Conditions: inhibitor final concentration 0.125 μg/μl; substrate bis-p-nitrophenyl phosphate. The protocol:
The activity of PDE1 was determined in an enzymatic assay as described below, using: • Enzyme: 10 μg/μl PDE1 (Lot.#: SLBD8711V, SIGMA-ALDRICH) • Substrate: 0.001 M Bis-p-nitrophenyl phosphate (Lot.#: 021M5003V, SIGMA-5 ALDRICH) • Buffer: 0.1M Tris-HCl, pH 8.9 • Inhibitor (trans-aconitic acid (TAA), Calycosin, Kaempferol 3-O-rutinoside, and Wogonin): 1 μg/μl (final concentration 0.125 μg/μl)
An example of the enzymatic assay is illustrated in FIG. 1. Briefly, substrate (50 μl) and buffer (200 μl) were placed in a plastic disposable cuvette (Cat.#: BL6224, Basic Life). PDE1 (100 μl) and each of the four inhibitors (50 μl) or the buffer (50 μl) as a control were then added into the cuvette. The total volume of the reaction mixture is 400 μl. After incubating the enzymatic reaction mixture for a suitable period of time, the optical density was detected by a spectrophotometer at a wave length of 405 nm (U-3300, HITACHI). The optical densities of the reaction mixtures containing the inhibitors were compared with that of the control mixture and the percentages of inhibition were calculated.

Test [2] deals with T1, PDE7A1 (Homo sapiens, UniProt Q13946).
T1 construct: purchased CALBIOCHEM 524751
In words: PDE7 activity and inhibition assay (HPLC detection of cAMP and AMP). The format is biochemical. Conditions: inhibitor final concentration 0.1 μg/μl; substrate cAMP; 90 minutes. The protocol:
The activity of PDE7A1 was determined in an enzymatic assay as described below, using: • Enzyme: 0.005 U/μl PDE7A1 (Cat.#: 524751, CALBIOCHEM) • Substrate: 0.0008 μg/μl cAMP (Lot.#: BCBF5219V, SIGMA-ALDRICH) • Buffer: 10 mM Tris-HCl, pH 7.5 • Inhibitor as mentioned above: 0.3 μg/μl as a result final concentration 0.1 μg/μl
An example of the enzymatic assay for determining the activity of PDE7A1 is illustrated in FIG. 2. Briefly, substrate (10 μl), PDE7A1 (10 μl), and buffer (10 μl; as a control) were placed in an eppendorf tube in a total volume of 30 μl and immediately (at 0 minute) injected into HPLC (L-7420, HITACHI) and the contents of cAMP and AMP in the reaction mixture were detected at 254 nm under the following conditions:
Solvent: 0.2M NaH2PO4, 25 mM TBA-HS, 15% ACN, pH6
The peak areas of the cAMP and AMP were measured.
90 minutes later, the control mixture was injected again into the HPLC apparatus and the peak areas of cAMP and AMP were measured as described above and compared with that of the initial injection.
Reaction mixtures containing each of the four inhibitors (10 μl) in the same total volume were injected into the HPLC apparatus following the same procedure as described above and the peak areas of cAMP and AMP were measured and compared with that of the control sample. The percentages of inhibition were calculated.

T1 sequence (Q13946 whole entry): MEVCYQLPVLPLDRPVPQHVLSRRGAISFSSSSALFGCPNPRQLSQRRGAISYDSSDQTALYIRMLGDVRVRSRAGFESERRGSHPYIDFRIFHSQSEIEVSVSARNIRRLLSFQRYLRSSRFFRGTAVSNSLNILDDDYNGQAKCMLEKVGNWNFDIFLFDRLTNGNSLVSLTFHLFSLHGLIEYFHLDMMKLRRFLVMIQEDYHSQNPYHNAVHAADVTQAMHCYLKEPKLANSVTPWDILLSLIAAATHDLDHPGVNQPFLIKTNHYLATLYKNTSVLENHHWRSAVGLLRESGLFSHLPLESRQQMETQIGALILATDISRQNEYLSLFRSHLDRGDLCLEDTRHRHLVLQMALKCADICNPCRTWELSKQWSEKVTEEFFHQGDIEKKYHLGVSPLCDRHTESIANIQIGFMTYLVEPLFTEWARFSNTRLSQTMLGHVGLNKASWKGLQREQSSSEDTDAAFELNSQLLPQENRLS

For the compound `O=C(O)/C=C(\CC(=O)O)C(=O)O` [TAA, trans-aconitic acid], the “inhibitory activity against PDE1 (percentage of inhibition, FIG. 3)” value in test [1] is recorded as “not PDE1”. Moreover, the “inhibitory activity against PDE7A1 (percentage of inhibition, FIG. 3)” value in test [2] was “specifically inhibits PDE7A1”.
